“And” between values parts separate entries of the source, which are not always exact repeats. Identical values can stand only once. Toxic doses and inconclusive results are not listed. Cut-off read from the data, not from the text of the source: active = T/C of 150% or more; inactive = T/C below 125%.
System: L1210 leukemia ip in BDF1 mice, survival T/C
Experiment: NCI In Vivo Anticancer Drug Screen. Data for tumor model L1210 Leukemia (intraperitoneal) in B6D2F1 (BDF1) mice
Conditions: endpoint: mean survival time, higher = longer survival
Method in brief: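 Tumor was transplanted into mice, which were then dosed with test compound or vehicle alone. Survival was recorded for each group, and the treated figure was expressed relative to the control figure.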

[1] = dose: 100.0 mg/kg/injection, schedule: Q01DX009 (ip), vehicle: saline with Tween-80
[2] = dose: 200.0 mg/kg/injection, schedule: Q01DX009 (ip), vehicle: saline with Tween-80
[3] = dose: 400.0 mg/kg/injection, schedule: Q01DX009 (ip), vehicle: saline with Tween-80
[4] = dose: 100.0 mg/kg/injection, schedule: Q04DX003 (ip), vehicle: saline with Tween-80
[5] = dose: 200.0 mg/kg/injection, schedule: Q04DX003 (ip), vehicle: saline with Tween-80
[6] = dose: 100.0 mg/kg/injection, schedule: Q01DX001 (ip), vehicle: saline
[7] = dose: 200.0 mg/kg/injection, schedule: Q01DX001 (ip), vehicle: saline
[8] = dose: 400.0 mg/kg/injection, schedule: Q01DX001 (ip), vehicle: saline
[9] = dose: 100.0 mg/kg/injection, schedule: Q04DX003 (ip), vehicle: saline
[10] = dose: 100.0 mg/kg/injection, schedule: Q04DX003 (ip), vehicle: Klucel (hydroxypropylcellulose) (HPC)
[11] = dose: 200.0 mg/kg/injection, schedule: Q04DX003 (ip), vehicle: Klucel (hydroxypropylcellulose) (HPC)
[12] = dose: 400.0 mg/kg/injection, schedule: Q04DX003 (ip), vehicle: Klucel (hydroxypropylcellulose) (HPC)
[13] = dose: 50.0 mg/kg/injection, schedule: Q01DX009 (ip), vehicle: Klucel (hydroxypropylcellulose) (HPC)
[14] = dose: 100.0 mg/kg/injection, schedule: Q01DX009 (ip), vehicle: Klucel (hydroxypropylcellulose) (HPC)
[15] = dose: 200.0 mg/kg/injection, schedule: Q01DX009 (ip), vehicle: Klucel (hydroxypropylcellulose) (HPC)
[16] = dose: 400.0 mg/kg/injection, schedule: Q01DX009 (ip), vehicle: Klucel (hydroxypropylcellulose) (HPC)
[17] = dose: 100.0 mg/kg/injection, schedule: Q04DX002 (ip), vehicle: saline
[18] = dose: 200.0 mg/kg/injection, schedule: Q04DX002 (ip), vehicle: saline
[19] = dose: 400.0 mg/kg/injection, schedule: Q04DX002 (ip), vehicle: saline
[20] = dose: 50.0 mg/kg/injection, schedule: Q01DX001 (ip), vehicle: saline
[21] = dose: 400.0 mg/kg/injection, schedule: Q04DX003 (ip), vehicle: saline with Tween-80
[22] = dose: 100.0 mg/kg/injection, schedule: Q01DX001 (ip), vehicle: carboxymethylcellulose (CMC)
[23] = dose: 200.0 mg/kg/injection, schedule: Q01DX001 (ip), vehicle: carboxymethylcellulose (CMC)
[24] = dose: 400.0 mg/kg/injection, schedule: Q01DX001 (ip), vehicle: carboxymethylcellulose (CMC)

Measured: T/C

COCCCNc1ccc(S(=O)(=O)c2ccc(N)cc2)cc1
inactive: [1] 103 % of control | [2] 95 % of control | [3] 97 % of control

OC(c1cc2c3c(c1)CCCN3CCC2)(C(F)(F)F)C(F)(F)F
inactive: [4] 92 % of control | [5] 96 % of control

NC(=S)N/N=C/c1nccn1Cc1ccccc1
inactive: dose: 100.0 mg/kg/injection, schedule: Q01DX001 (ip), vehicle: Klucel (hydroxypropylcellulose) (HPC) 104 % of control | dose: 100.0 mg/kg/injection, schedule: Q01DX001 (ip), vehicle: other 101 % of control | dose: 200.0 mg/kg/injection, schedule: Q01DX001 (ip), vehicle: Klucel (hydroxypropylcellulose) (HPC) 101 % of control | dose: 200.0 mg/kg/injection, schedule: Q01DX001 (ip), vehicle: other 96 % of control | dose: 400.0 mg/kg/injection, schedule: Q01DX001 (ip), vehicle: Klucel (hydroxypropylcellulose) (HPC) 104 % of control

CCCCCCCCCCCC(=O)NN
inactive: dose: 18.8 mg/kg/injection, schedule: Q01DX009 (ip), vehicle: carboxymethylcellulose (CMC) 105 % of control | dose: 37.5 mg/kg/injection, schedule: Q01DX009 (ip), vehicle: carboxymethylcellulose (CMC) 96 % of control | dose: 75.0 mg/kg/injection, schedule: Q01DX009 (ip), vehicle: carboxymethylcellulose (CMC) 109 % of control and 114 % of control | [6] 98 % of control | [7] 104 % of control | [8] 106 % of control

NC1CC(N)CC(N)C1 (stereo unspecified)
inactive: dose: 25.0 mg/kg/injection, schedule: Q04DX003 (ip), vehicle: saline 92 % of control | dose: 50.0 mg/kg/injection, schedule: Q04DX003 (ip), vehicle: saline 99 % of control | [9] 86 % of control and 91 % of control

CCCCCCCCCCCCCCCC(=O)Nc1ccc(O)cc1
inactive: [6] 110 % of control | [10] 97 % of control | [7] 110 % of control | [11] 102 % of control | [8] 108 % of control | [12] 95 % of control

COC(=O)[C@H]1[C@H]2C[C@@H]3c4[nH]c5cc(OC)ccc5c4CCN3C[C@H]2C[C@@H](OC(=O)/C=C/c2cc(OC)c(OC)c(OC)c2)[C@@H]1OC
inactive: dose: 3.12 mg/kg/injection, schedule: Q01DX009 (ip), vehicle: Klucel (hydroxypropylcellulose) (HPC) 96 % of control | dose: 6.25 mg/kg/injection, schedule: Q01DX009 (ip), vehicle: Klucel (hydroxypropylcellulose) (HPC) 96 % of control | dose: 12.5 mg/kg/injection, schedule: Q01DX009 (ip), vehicle: Klucel (hydroxypropylcellulose) (HPC) 105 % of control | dose: 25.0 mg/kg/injection, schedule: Q01DX009 (ip), vehicle: Klucel (hydroxypropylcellulose) (HPC) 96 % of control | dose: 25.0 mg/kg/injection, schedule: Q04DX003 (ip), vehicle: Klucel (hydroxypropylcellulose) (HPC) 111 % of control | [13] 100 % of control | dose: 50.0 mg/kg/injection, schedule: Q04DX003 (ip), vehicle: Klucel (hydroxypropylcellulose) (HPC) 103 % of control

Cc1ccc(NC(=O)CCC(=O)O)cc1Cl
inactive: [14] 102 % of control | [15] 92 % of control | [16] 89 % of control

COc1ccc(SC2=C(N(C)C(C)=O)C(=O)c3ccccc3C2=O)cc1
inactive: dose: 7.5 mg/kg/injection, schedule: Q01DX009 (ip), vehicle: Klucel (hydroxypropylcellulose) (HPC) 89 % of control | dose: 15.0 mg/kg/injection, schedule: Q01DX001 (ip), vehicle: Klucel (hydroxypropylcellulose) (HPC) 93 % of control | dose: 15.0 mg/kg/injection, schedule: Q01DX009 (ip), vehicle: Klucel (hydroxypropylcellulose) (HPC) 92 % of control | dose: 30.0 mg/kg/injection, schedule: Q01DX001 (ip), vehicle: Klucel (hydroxypropylcellulose) (HPC) 88 % of control | dose: 30.0 mg/kg/injection, schedule: Q01DX009 (ip), vehicle: Klucel (hydroxypropylcellulose) (HPC) 89 % of control

Cc1ccc(S(=O)(=O)OC23CCC(C)(CC2)C2(C3)OCCO2)cc1
inactive: [17] 95 % of control | [18] 98 % of control | [19] 98 % of control

CC12CCC3c4ccc(Cc5ccc([N+](=O)[O-])cc5)cc4CCC3C1CCC2=O (stereo unspecified)
inactive: [20] 105 % of control | [6] 100 % of control | [7] 100 % of control | [8] 105 % of control

CCN(CC)C(=O)CCc1ccccc1
inactive: [1] 108 % of control | [2] 100 % of control

O=C(CNc1ccccc1)c1ccc(O)c(C(=O)O)c1 (tested in a mixture with another compound)
inactive: [10] 91 % of control | [11] 90 % of control | [12] 93 % of control

COc1ccc(CN2CCN(Cc3ccc(OC)c(OC)c3)C2c2ccc(OC)c(OC)c2)cc1OC
inactive: [1] 94 % of control | [4] 102 % of control | [2] 104 % of control | [5] 93 % of control | [3] 108 % of control | [21] 91 % of control

COC1OC2COc3ccccc3OC2C(NC(N)=S)C1S (stereo unspecified)
inactive: [4] 102 % of control | [5] 95 % of control | [21] 102 % of control

CNC(=O)Nc1ccc(OC)cc1Cl
inactive: [14] 98 % of control and 87 % of control | [15] 98 % of control | [16] 95 % of control and 90 % of control

Nc1nc(-c2ccccc2)c2ccccc2n1
inactive: [22] 101 % of control | [23] 93 % of control | [24] 104 % of control

O=C(Cc1ccccc1)Nc1ccc(Cl)cc1C(=O)c1ccccc1
inactive: [17] 101 % of control | [18] 93 % of control | [19] 90 % of control

O=C(NC(=O)c1ccc([N+](=O)[O-])cc1)Nc1ccccc1
inactive: dose: 264.0 mg/kg/injection, schedule: Q01DX001 (ip), vehicle: carboxymethylcellulose (CMC) 92 % of control | [24] 96 % of control | dose: 600.0 mg/kg/injection, schedule: Q01DX001 (ip), vehicle: carboxymethylcellulose (CMC) 88 % of control

CCn1c(N)cc(=O)[nH]c1=S
inactive: [20] 96 % of control | [6] 108 % of control | [7] 102 % of control | [8] 106 % of control

O=C1CCCC/C1=C\Sc1ccccc1
inactive: [17] 95 % of control | [18] 98 % of control | [19] 88 % of control

COc1ccccc1C(C)=O
inactive: [13] 97 % of control | [14] 100 % of control | [15] 87 % of control

O=c1ccc2cc(Cl)ccc2o1
inactive: dose: 50.0 mg/kg/injection, schedule: Q01DX001 (ip), vehicle: carboxymethylcellulose (CMC) 98 % of control | [22] 98 % of control | [23] 93 % of control | [24] 98 % of control

CC(C)CCCC(C)C1CCC2C3CC(=O)NC4CC(Cl)CCC4(C)C3CCC12C (stereo unspecified)
inactive: [6] 89 % of control | [9] 86 % of control | [7] 93 % of control | [8] 91 % of control

O=C(Nc1cccc(Cl)c1)Oc1ccc2ccccc2c1
inactive: dose: 100.0 mg/kg/injection, schedule: Q01DX009 (ip), vehicle: saline 90 % of control | dose: 100.0 mg/kg/injection, schedule: Q04DX004 (ip), vehicle: saline 104 % of control | dose: 200.0 mg/kg/injection, schedule: Q01DX009 (ip), vehicle: saline 101 % of control | dose: 200.0 mg/kg/injection, schedule: Q04DX004 (ip), vehicle: saline 90 % of control | dose: 400.0 mg/kg/injection, schedule: Q01DX009 (ip), vehicle: saline 101 % of control | dose: 400.0 mg/kg/injection, schedule: Q04DX004 (ip), vehicle: saline 98 % of control

c1ccc2c(c1)OC1OC2Oc2ccccc21
inactive: [6] 97 % of control | dose: 177.0 mg/kg/injection, schedule: Q01DX001 (ip), vehicle: saline 104 % of control and 92 % of control | [7] 101 % of control | dose: 266.0 mg/kg/injection, schedule: Q01DX001 (ip), vehicle: saline 93 % of control and 94 % of control | [8] 88 % of control and 90 % of control | dose: 600.0 mg/kg/injection, schedule: Q01DX001 (ip), vehicle: saline 86 % of control and 92 % of control

O=C1c2ccccc2-c2ccc(N=C(NO)C(F)(F)F)cc21
inactive: [22] 118 % of control | [23] 98 % of control | [24] 98 % of control

— PubChem BioAssay AID248 (DTP/NCI, 2004)
